The record followed here is PubChem BioAssay (NCI).

The structures appear in SMILES notation.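 Cultured in 96-well plates, cells were exposed to test compound for 48 hours across five concentrations. TGI: concentration producing complete growth inhibition.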

Some test systems named below: NCI-H23 lung; NCI-H522 lung; SN12C renal; T-47D breast; BT-549 breast; CCRF-CEM leukemia; CAKI-1 renal; MOLT-4 leukemia; TK-10 renal; A498 renal.
What all share (assay): inhibition of tumour cell growth, NCI panel, 48 h

Turning to `CC(C)(C)c1ccc(OCCOc2ccc(C(C)(C)C)cc2NC=O)c(NC=O)c1`, the TGI was 40.7 µM in the assay on NCI-H23 lung; 24.4 µM in the assay with NCI-H522 lung; 30.8 µM with SN12C renal; greater than 86 µM in the assay on T-47D breast; 32.8 µM in the assay with BT-549 breast; greater than 45.3 µM with CCRF-CEM leukemia. Moreover, the TGI in the assay on CAKI-1 renal was greater than 67.7 µM; in the assay on MOLT-4 leukemia it was 19.1 µM; with TK-10 renal, greater than 100 µM; in the assay on A498 renal it was 40 µM.

Turning to `Clc1cccc(C=NC23CC4CC(CC(C4)C2)C3)c1Cl`, the TGI in the assay on NCI-H23 lung, in the assay on NCI-H522 lung, in the assay with SN12C renal, with T-47D breast, in the assay on BT-549 breast and with CCRF-CEM leukemia was greater than 10 µM throughout. Moreover, the TGI in the assay on CAKI-1 renal, with TK-10 renal and in the assay on A498 renal was greater than 10 µM throughout.

Consider `COC(=O)c1cc(NC(=O)Cn2c3ccccc3c3ccccc32)cn1C`, for which the TGI in the assay on NCI-H23 lung was greater than 100 µM; in the assay on NCI-H522 lung, greater than 100 µM; in the assay with SN12C renal it was greater than 100 µM; with T-47D breast it was greater than 100 µM; in the assay with BT-549 breast it was 71.3 µM; with CCRF-CEM leukemia, greater than 100 µM. Besides, the TGI in the assay with CAKI-1 renal, in the assay with MOLT-4 leukemia, with TK-10 renal and in the assay on A498 renal was greater than 100 µM throughout.

Take `O=[N+]([O-])c1cc(-c2ccc([As](=O)(O)O)cc2)ccc1[As](=O)(O)O`: the TGI in the assay on NCI-H23 lung, in the assay on NCI-H522 lung, with SN12C renal, in the assay with T-47D breast, in the assay on BT-549 breast and with CCRF-CEM leukemia was greater than 100 µM each time. Besides, the TGI with CAKI-1 renal, in the assay with MOLT-4 leukemia, with TK-10 renal and in the assay on A498 renal was greater than 100 µM in each case.

Turning to `COC(=O)[C@@]1(Cc2ccc(OC(C)=O)cc2)Cc2cc3ccccc3n2N1`, the TGI with NCI-H23 lung, in the assay with NCI-H522 lung, in the assay on SN12C renal, in the assay with T-47D breast, in the assay on BT-549 breast and in the assay on CCRF-CEM leukemia was greater than 100 µM each time. Moreover, the TGI with CAKI-1 renal was greater than 100 µM; in the assay with MOLT-4 leukemia it was greater than 100 µM; with TK-10 renal it was greater than 100 µM; in the assay with A498 renal, 87.3 µM.

As to `O=c1oc2c(Cl)cc(Cl)cc2cc1-c1cn2c(n1)sc1ccccc12`, the TGI with NCI-H23 lung is greater than 100 µM; in the assay on NCI-H522 lung it was 88.8 µM; in the assay on SN12C renal, greater than 100 µM; in the assay on T-47D breast it was greater than 100 µM; with BT-549 breast, 87.4 µM; in the assay on CCRF-CEM leukemia, 55.6 µM. The figures for the TGI in the assay with CAKI-1 renal, with MOLT-4 leukemia and with TK-10 renal were greater than 100 µM, 52 µM and greater than 100 µM, respectively.

As to `Cn1c(SCc2ccc([N+](=O)[O-])cc2)nnc1C12CC3CC(CC(C3)C1)C2`, the TGI with NCI-H23 lung, in the assay with NCI-H522 lung, in the assay with SN12C renal, with T-47D breast, with BT-549 breast and with CCRF-CEM leukemia was greater than 10 µM throughout. Moreover, the TGI in the assay with CAKI-1 renal, with MOLT-4 leukemia and with A498 renal was greater than 10 µM throughout.

With `COc1ccc2nc3c(nc2c1)C(C)(C)C=C3c1ccc(Br)cc1`, the TGI with NCI-H522 lung, in the assay with SN12C renal, in the assay with T-47D breast, with BT-549 breast, in the assay on CCRF-CEM leukemia and in the assay with CAKI-1 renal was greater than 100 µM each time. For the same molecule, the TGI in the assay with MOLT-4 leukemia, in the assay on TK-10 renal and with A498 renal was greater than 100 µM each time.

As for `CCOC(=O)/C(C(N)=O)=C(/O)c1cnccn1`, the TGI with NCI-H23 lung, in the assay on NCI-H522 lung, in the assay on SN12C renal, in the assay with T-47D breast, in the assay with BT-549 breast and in the assay with CCRF-CEM leukemia was greater than 100 µM in each case. The TGI in the assay with CAKI-1 renal, with MOLT-4 leukemia and in the assay with A498 renal was greater than 100 µM throughout.

Consider `COc1cc2ccnc3c2c(c1OC)N(C)C=C3`, for which the TGI in the assay on NCI-H23 lung is 47 µM; with SN12C renal it was greater than 100 µM; in the assay with T-47D breast, greater than 100 µM; with BT-549 breast, 87.8 µM; in the assay on CAKI-1 renal, 44.8 µM; in the assay with MOLT-4 leukemia, greater than 100 µM. Also, the TGI in the assay with TK-10 renal and with A498 renal was greater than 100 µM each time.

Turning to `C=c1c2ccccc2oc2nc3[nH]c(N)c(C#N)c(N)c3c(=N)c12`, the TGI was 62.7 µM in the assay on NCI-H23 lung; greater than 100 µM in the assay on SN12C renal; greater than 100 µM in the assay on T-47D breast; greater than 100 µM in the assay on BT-549 breast; greater than 100 µM with CCRF-CEM leukemia; greater than 100 µM in the assay with CAKI-1 renal. The results for the TGI in the assay on MOLT-4 leukemia, in the assay with TK-10 renal and in the assay on A498 renal were 89.2 µM, greater than 100 µM and greater than 100 µM, respectively.

Turning to `CCCC(CCC(=O)O)(CCC(=O)O)[N+](=O)[O-]`, the TGI in the assay with NCI-H23 lung, in the assay with NCI-H522 lung, with SN12C renal, in the assay with T-47D breast, with BT-549 breast and with CAKI-1 renal was greater than 100 µM throughout. Also, the TGI with MOLT-4 leukemia and in the assay on TK-10 renal was greater than 100 µM each time.

Consider `Cc1cc2nc3c(C)c4ccccc4c(C)n3c2cc1C`, for which the TGI in the assay with NCI-H23 lung, with NCI-H522 lung, in the assay on SN12C renal, with T-47D breast, in the assay with BT-549 breast and in the assay on CCRF-CEM leukemia was greater than 10 µM throughout. For the same molecule, the TGI with CAKI-1 renal, in the assay with MOLT-4 leukemia and in the assay on TK-10 renal was greater than 10 µM throughout.

With `Cc1ccc2c(=O)cc(-c3ccccc3)[nH]c2n1`, the TGI was 16.8 µM in the assay with NCI-H23 lung; 2.94 µM in the assay on NCI-H522 lung; greater than 36 µM with SN12C renal; greater than 100 µM in the assay with T-47D breast; greater than 100 µM in the assay with BT-549 breast; greater than 72.9 µM in the assay on CAKI-1 renal. The TGI in the assay on MOLT-4 leukemia is greater than 28.3 µM; with TK-10 renal it was greater than 9.36 µM.

As for `CCOC(=O)C1=C(C)NC(c2ccccc2)=C(C(=O)OCc2ccccc2)C1C#Cc1ccccc1` (stereo unspecified), the TGI in the assay on NCI-H23 lung was greater than 100 µM; in the assay on SN12C renal it was greater than 100 µM; in the assay with T-47D breast, greater than 100 µM; with BT-549 breast, greater than 100 µM; with CCRF-CEM leukemia, greater than 100 µM; with CAKI-1 renal, 57.4 µM. Also, the TGI in the assay with MOLT-4 leukemia, in the assay with TK-10 renal and in the assay on A498 renal was greater than 100 µM throughout.

Consider `OC[C@@H](O)[C@H](O)[C@H](O)[C@@H](O)C1SCCCS1`, for which the TGI with NCI-H23 lung, in the assay on SN12C renal, in the assay with T-47D breast, with BT-549 breast, with CAKI-1 renal and with MOLT-4 leukemia was greater than 100 µM in each case. Besides, the TGI with TK-10 renal and in the assay with A498 renal was greater than 100 µM each time.

On to `Cc1[nH]c(-c2ccccc2)c(O)c1C(=O)OC1CC(C)CCC1C(C)C` (stereo unspecified), for which the TGI with NCI-H23 lung worked out at 26.6 µM; with NCI-H522 lung, 26.6 µM; with SN12C renal it was 29.1 µM; in the assay on T-47D breast, 26.8 µM; in the assay with BT-549 breast, 33 µM; in the assay on CCRF-CEM leukemia, 31 µM. For the same molecule, the TGI with CAKI-1 renal came out at 32.2 µM; in the assay on MOLT-4 leukemia, 28.1 µM; with A498 renal, 32.7 µM.

Regarding `CCN1CCC(O)(/C=C/c2ccc(Cl)c(Cl)c2)C(C(=O)/C=C/c2ccc(Cl)c(Cl)c2)C1` (stereo unspecified), the TGI in the assay on NCI-H23 lung was found to be 2.06 µM; with NCI-H522 lung it was 2.33 µM; with SN12C renal, 2.06 µM; in the assay with T-47D breast, 2.36 µM; in the assay with BT-549 breast, 2.01 µM; in the assay with CCRF-CEM leukemia, 1.13 µM. The TGI was 3.21 µM in the assay on CAKI-1 renal, 2.81 µM in the assay on TK-10 renal and 2.91 µM with A498 renal.

`CC(C)C(C=O)C(O)(C(F)(F)F)C(F)(F)F` (stereo unspecified): the TGI with NCI-H23 lung, in the assay on NCI-H522 lung, in the assay with T-47D breast, in the assay with BT-549 breast, with CAKI-1 renal and in the assay with MOLT-4 leukemia was greater than 100 µM in each case. Also, the TGI with TK-10 renal and in the assay on A498 renal was greater than 100 µM each time.

Turning to `COc1cc(/C=[N+](\[O-])c2ccccc2Cl)ccc1OC(=S)S`, the TGI with NCI-H23 lung was greater than 100 µM; with NCI-H522 lung it was greater than 100 µM; in the assay with SN12C renal, greater than 100 µM; in the assay with T-47D breast, 53.4 µM; with BT-549 breast it was 68.3 µM; with CAKI-1 renal, greater than 100 µM. Also, the TGI in the assay on MOLT-4 leukemia, in the assay with TK-10 renal and in the assay on A498 renal was greater than 100 µM throughout.

`COC(=O)C1=C(C(=O)OC)SC2(S1)C(C(=O)OC)=C(C(=O)OC)Sc1c2ssc1=O`: the TGI in the assay with NCI-H23 lung is 4.12 µM; with NCI-H522 lung it was 0.581 µM; in the assay on SN12C renal it was 2.96 µM; with BT-549 breast, 2.89 µM; in the assay with CCRF-CEM leukemia it was 0.307 µM; in the assay with CAKI-1 renal, 2.93 µM. In addition, the TGI with MOLT-4 leukemia is 0.843 µM; with TK-10 renal, 3.04 µM; with A498 renal it was 3.68 µM.

With `O=C1/C(=C/Cc2ccco2)N=C(c2ccccc2)N1c1nc2ccc(Sc3ccccc3)cc2[nH]1`, the TGI is 34.9 µM with SN12C renal; greater than 100 µM with T-47D breast; 57.7 µM with BT-549 breast; 44.2 µM in the assay with CCRF-CEM leukemia; greater than 100 µM in the assay on CAKI-1 renal; 92.9 µM in the assay on MOLT-4 leukemia. The TGI in the assay on TK-10 renal is greater than 100 µM; in the assay with A498 renal, 30.7 µM.
